Read-outs that look alike come from different tables or passages of the source.
Key:
Assay type in all cases: cell-based
[1] = test system: A control cell lines; test: MTT assay, A control cell lines (lung cancer cell); conditions: for inhibition effect on A control cell line (in words): summary of MTT cell viabilities
From the text: Please refer to Table 1 and FIGS. 4A-4C. According to a MTT assay (Table 1), various cell viabilities of the A control cell lines can be obtained and illustrated in FIG. 4A while the compounds No. 2˜30 are used to treat A control cell lines, wherein A control cell lines are lung cancer cell.

[2] = test system: HEL299 fibroblast; test: MTT assay, HEL299 fibroblast
From the text: Please refer to FIG. 4C, various cell viabilities of the HEL299 cell lines can be obtained through the MTT assay while the compounds No. 1˜30 are used to treat HEL299 cell lines, wherein HEL299 cell lines are fibroblast.

[3] = test system: RPMI-8226; test: NCI in vitro DTP human cell line screen, RPMI-8226; conditions: Leukemia, 1.00E−5 Molar
Experimental: (§1) Then, a cell toxicity assay of the cancer lines made by National Cancer Institute will be discussed as follows. The cell toxicity assay is performed by choosing ten compounds (existing certification numbers) from the 59 compounds disclosed in the present invention first.

[4] = test system: HOP-92; test: NCI in vitro DTP human cell line screen, HOP-92; conditions: Non-Small Cell Lung Cancer, 1.00E−5 Molar
Experimental: as §1

[5] = test system: SW-620; test: NCI in vitro DTP human cell line screen, SW-620; conditions: Colon Cancer, 1.00E−5 Molar
Experimental: as §1

[6] = test system: SNB-75; test: NCI in vitro DTP human cell line screen, SNB-75; conditions: CNS Cancer, 1.00E−5 Molar
Experimental: as §1

[7] = test system: U251; test: NCI in vitro DTP human cell line screen, U251; conditions: CNS Cancer, 1.00E−5 Molar
Experimental: as §1

[8] = test system: SK-MEL-28; test: NCI in vitro DTP human cell line screen, SK-MEL-28; conditions: Melanoma, 1.00E−5 Molar
Experimental: as §1

[9] = test system: CAKI-1; test: NCI in vitro DTP human cell line screen, CAKI-1; conditions: Renal Cancer, 1.00E−5 Molar
Experimental: as §1

[10] = test system: RXF 393; test: NCI in vitro DTP human cell line screen, RXF 393; conditions: Renal Cancer, 1.00E−5 Molar
Experimental: as §1

[11] = test system: HS 578-T; test: NCI in vitro DTP human cell line screen, HS 578-T; conditions: Breast Cancer, 1.00E−5 Molar
Experimental: as §1

[12] = test system: BT-549; test: NCI in vitro DTP human cell line screen, BT-549; conditions: Breast Cancer, 1.00E−5 Molar
Experimental: as §1

[13] = test system: T-47D; test: NCI in vitro DTP human cell line screen, T-47D; conditions: Breast Cancer, 1.00E−5 Molar
Experimental: as §1

[14] = test system: MDA-MB-468; test: NCI in vitro DTP human cell line screen, MDA-MB-468; conditions: Breast Cancer, 1.00E−5 Molar
Experimental: as §1

COc1ccc(CSc2ccc3c(=O)c4ccccc4sc3c2Cl)cc1 [No. 27, 4-Chloro-3-(4-methoxybenzylthio)-9H-thioxanthen-9-one]
cell viabilities of A control cell lines (MTT assay) [1]: 50.5%
inhibition effect on A control cell line (in words) [1]: inhibition effect
cytotoxicity effect on the normal fibroblast (in words) [2]: without the cytotoxicity effect
Growth Percent [3]: 103.69%
Growth Percent [4]: 78.71%
Growth Percent [5]: 106.98%
Growth Percent [6]: 97.97%
Growth Percent [7]: 96.42%
Growth Percent [8]: 118.75%
Growth Percent [9]: 102.18%
Growth Percent [10]: 117.83%
Growth Percent [11]: 124.03%
Growth Percent [12]: 93.21%
Growth Percent [13]: 88.81%
Growth Percent [14]: 102.80%

O=c1c2ccccc2sc2c(Cl)c(SCc3ccc(Cl)cc3)ccc12 [No. 26, 4-Chloro-3-(4-chlorobenzylthio)-9H-thioxanthen-9-one]
cell viabilities of A control cell lines (MTT assay) [1]: 96.8 ± 4.29%
Growth Percent [3]: 91.09%
Growth Percent [4]: 69.89%
Growth Percent [5]: 105.00%
Growth Percent [6]: 96.90%
Growth Percent [7]: 86.21%
Growth Percent [8]: 114.10%
Growth Percent [9]: 98.76%
Growth Percent [10]: 109.38%
Growth Percent [11]: 108.61%
Growth Percent [12]: 94.67%
Growth Percent [13]: 87.73%
Growth Percent [14]: 96.96%

O=c1c2ccccc2sc2c(Cl)c(SCc3ccccc3)ccc12 [No. 23, 3-(Benzylthio)-4-chloro-9H-thioxanthen-9-one]
cell viabilities of A control cell lines (MTT assay) ([1]; A control, lung cancer cell): 36.6%
inhibition effect on A control cell line (in words) [1]: inhibition effect
cell viabilities of HEL299 cell lines (MTT assay) ([2]; HEL299, normal fibroblast): 85.2 ± 5.26%
Growth Percent [3]: 89.98%
Growth Percent [4]: 74.60%
Growth Percent [5]: 69.53%
Growth Percent [6]: 75.12%
Growth Percent [7]: 38.89%
Growth Percent [8]: 119.10%
Growth Percent [9]: 54.75%
Growth Percent [10]: 106.84%
Growth Percent [11]: 91.28%
Growth Percent [12]: 84.98%
Growth Percent [13]: 82.55%
Growth Percent [14]: 73.81%

CCCSc1ccc2c(=O)c3ccccc3sc2c1Cl [No. 3, 4-Chloro-3-(propylthio)-9H-thioxanthen-9-one]
cell viabilities of A control cell lines (MTT assay) [1]: 84.8 ± 2.95%
Growth Percent [3]: 104.20%
Growth Percent [4]: 98.11%
Growth Percent [5]: 87.67%
Growth Percent [6]: 100.85%
Growth Percent [7]: 67.20%
Growth Percent [8]: 104.13%
Growth Percent [9]: 78.97%
Growth Percent [10]: 106.97%
Growth Percent [11]: 94.80%
Growth Percent [12]: 93.64%
Growth Percent [13]: 98.14%
Growth Percent [14]: 91.53%
